The source of these data is ChEMBL document CHEMBL2440060, “Identification of a Novel and Selective Series of Itk Inhibitors via a Template-Hopping Strategy” (ACS Med Chem Lett, 2013).

What is called Ki is a measure of affinity in units of concentration, obtained from inhibition or displacement.

Experiment [1] deals with Tyrosine-protein kinase Lck (Homo sapiens, UniProt P06239). As to the kind of experiment: Inhibition of LCK (unknown origin) using tamra-p34cdc-derived peptide as substrate after 30 mins.
The target in experiment [2] is Aurora kinase B (Homo sapiens, UniProt Q96GD4). Briefly: Inhibition of Aurora-B (unknown origin) using 5FAM-PKAtide as substrate after 120 mins.
Experiment [3] deals with T1, Tyrosine-protein kinase ITK/TSK (Homo sapiens, UniProt Q08881).
T1 sequence (Q08881 whole entry): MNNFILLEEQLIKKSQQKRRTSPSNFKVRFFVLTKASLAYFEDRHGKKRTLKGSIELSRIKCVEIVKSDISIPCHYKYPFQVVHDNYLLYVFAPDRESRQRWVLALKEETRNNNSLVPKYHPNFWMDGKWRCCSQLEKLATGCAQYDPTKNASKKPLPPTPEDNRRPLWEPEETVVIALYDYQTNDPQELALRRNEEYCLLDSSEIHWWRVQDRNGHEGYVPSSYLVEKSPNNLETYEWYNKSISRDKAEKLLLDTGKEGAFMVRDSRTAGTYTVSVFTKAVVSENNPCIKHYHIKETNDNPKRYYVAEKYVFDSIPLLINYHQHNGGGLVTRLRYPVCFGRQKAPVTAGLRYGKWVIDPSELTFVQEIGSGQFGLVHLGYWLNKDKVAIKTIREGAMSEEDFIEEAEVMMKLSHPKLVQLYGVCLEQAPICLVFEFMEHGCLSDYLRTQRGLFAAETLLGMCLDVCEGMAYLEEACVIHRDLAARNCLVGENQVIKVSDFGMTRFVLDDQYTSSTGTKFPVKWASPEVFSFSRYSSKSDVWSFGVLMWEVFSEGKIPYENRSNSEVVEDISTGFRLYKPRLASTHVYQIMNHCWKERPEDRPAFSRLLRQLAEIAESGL
Briefly: Inhibition of recombinant human FLAG-tagged ITK using biotinylated GST-SAM68 as substrate after 30 mins.

Sequence of Aurora kinase B (Q96GD4 whole entry): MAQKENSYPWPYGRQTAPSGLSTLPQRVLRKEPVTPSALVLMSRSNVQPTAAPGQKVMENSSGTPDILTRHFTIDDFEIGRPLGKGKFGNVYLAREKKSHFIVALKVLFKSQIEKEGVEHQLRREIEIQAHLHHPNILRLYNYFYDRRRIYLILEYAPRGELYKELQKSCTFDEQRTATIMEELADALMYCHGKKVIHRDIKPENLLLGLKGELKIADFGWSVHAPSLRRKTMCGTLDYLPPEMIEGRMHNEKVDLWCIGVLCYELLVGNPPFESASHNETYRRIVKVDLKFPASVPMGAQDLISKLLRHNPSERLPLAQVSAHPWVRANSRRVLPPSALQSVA
Sequence of Tyrosine-protein kinase Lck (P06239 whole entry): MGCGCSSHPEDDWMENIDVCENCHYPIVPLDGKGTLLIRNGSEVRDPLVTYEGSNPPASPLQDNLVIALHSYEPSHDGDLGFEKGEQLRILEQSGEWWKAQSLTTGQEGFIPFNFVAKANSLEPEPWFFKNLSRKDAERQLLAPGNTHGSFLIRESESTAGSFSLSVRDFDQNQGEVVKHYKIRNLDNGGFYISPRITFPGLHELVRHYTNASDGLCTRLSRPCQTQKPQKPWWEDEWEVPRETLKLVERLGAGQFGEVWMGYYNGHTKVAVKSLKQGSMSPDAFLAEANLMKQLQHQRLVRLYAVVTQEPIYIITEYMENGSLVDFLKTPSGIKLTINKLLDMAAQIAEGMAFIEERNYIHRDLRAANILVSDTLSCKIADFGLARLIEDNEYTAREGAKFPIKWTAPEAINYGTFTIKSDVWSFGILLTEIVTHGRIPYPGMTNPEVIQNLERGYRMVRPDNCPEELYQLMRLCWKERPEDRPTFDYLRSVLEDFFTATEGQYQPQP

Consider `COc1ccc2nc(Nc3cc(C(F)(F)c4ccc(F)cc4)nc(N4CCC[C@H]4C(N)=O)n3)sc2c1`, for which the Ki is 2510 nM in experiment [1], greater than 20000 nM in experiment [2] and 3980 nM in experiment [3].
Consider `Cc1csc(Nc2cc(Cc3ccccc3)nc(N[C@H]3CC[C@H](O)CC3)n2)n1`, for which the Ki was 3160 nM in experiment [1], greater than 20000 nM in experiment [2] and 158 nM in experiment [3].
The like results for `Cc1cnc(Nc2cc(Cc3ccccc3)nc(N[C@H]3CC[C@H](O)CC3)n2)s1` were, in that order, 20 nM, 0.501 nM and 2 nM.
The like results for `Cc1cc2nc(Nc3cc(Cc4ccccc4)nc(N[C@H]4CC[C@H](O)CC4)n3)sc2cc1C` were, in that order, greater than 25100 nM, 20000 nM and greater than 10000 nM.
The like results for `O[C@H]1CC[C@H](Nc2nc(Cc3ccccc3)cc(Nc3nc4ccccc4s3)n2)CC1` were, in that order, 316 nM, 398 nM and 1 nM.
With `Cc1ccc2nc(Nc3cc(Cc4ccccc4)nc(N[C@H]4CC[C@H](O)CC4)n3)sc2c1`, the values for the Ki in experiment [1], in experiment [2] and in experiment [3] were 251 nM, 316 nM and 0.398 nM, respectively.
The like results for `O[C@H]1CC[C@H](Nc2nc(Cc3ccccc3)cc(Nc3nc4ccc(Cl)cc4s3)n2)CC1` were, in that order, 79.4 nM, 251 nM and 0.316 nM.
For `O[C@H]1CC[C@H](Nc2nc(Cc3ccccc3)cc(Nc3nc4ccc(C(F)(F)F)cc4s3)n2)CC1`, the values for the Ki in experiment [1], in experiment [2] and in experiment [3] were 50.1 nM, 251 nM and 12.6 nM, respectively.
The like results for `N#Cc1ccc2nc(Nc3cc(Cc4ccccc4)nc(N[C@H]4CC[C@H](O)CC4)n3)sc2c1` were, in that order, 63.1 nM, 79.4 nM and 0.251 nM.
On to `COc1ccc2nc(Nc3cc(Cc4ccccc4)nc(N[C@H]4CC[C@H](O)CC4)n3)sc2n1`, for which the Ki in experiment [1] was 79.4 nM; in experiment [2], 316 nM; in experiment [3] it was 0.2 nM.
Turning to `O[C@H]1CC[C@H](Nc2nc(Cc3ccccc3)cc(Nc3nc4cccnc4s3)n2)CC1`, the Ki is 100 nM in experiment [1], 100 nM in experiment [2] and 0.251 nM in experiment [3].
For `CCc1ccc2nc(Nc3cc(Cc4ccccc4)nc(N[C@H]4CC[C@H](O)CC4)n3)sc2n1`, the Ki in experiment [1] was 100 nM; in experiment [2], 63.1 nM; in experiment [3] it was 1.58 nM.
As to `O[C@H]1CC[C@H](Nc2nc(Nc3n[nH]c4ccccc34)cc(C(F)(F)c3ccc(F)cc3)n2)CC1`, the Ki in experiment [1] is 15800 nM; in experiment [2], 631 nM; in experiment [3], 794 nM.
The like results for `O[C@H]1CC[C@H](Nc2nc(Nc3cc4ccccc4cn3)cc(C(F)(F)c3ccc(F)cc3)n2)CC1` were, in that order, 100 nM, 79.4 nM and 6.31 nM.
For `O[C@H]1CC[C@H](Nc2nc(Nc3ccc(Oc4ccc(F)cc4)cn3)cc(C(F)(F)c3ccc(F)cc3)n2)CC1`, the Ki is 501 nM in experiment [1], 5010 nM in experiment [2] and 501 nM in experiment [3].
With `O[C@H]1CC[C@H](Nc2nc(Nc3ncc(Cc4ccccc4)s3)cc(C(F)(F)c3ccc(F)cc3)n2)CC1`, the figures for the Ki in experiment [1], in experiment [2] and in experiment [3] were 100 nM, 5.01 nM and 63.1 nM, respectively.
As to `NC(=O)[C@@H]1CCCN1c1nc(Nc2ncc(Cc3ccccc3)s2)cc(C(F)(F)c2ccc(F)cc2)n1`, the Ki in experiment [1] was 316 nM; in experiment [2], 3160 nM; in experiment [3], greater than 10000 nM.
The like results for `COc1ccc2nc(Nc3cc(C(F)(F)c4ccc(F)cc4)nc(N[C@H]4CC[C@H](O)CC4)n3)sc2n1` were, in that order, 200 nM, greater than 20000 nM and 15.8 nM.
Turning to `COc1ccc2nc(Nc3cc(C(F)(F)c4ccc(F)cc4)nc(N[C@H]4CC[C@H](O)CC4)n3)sc2c1`, the results for the Ki in experiment [1], in experiment [2] and in experiment [3] were 251 nM, 2510 nM and 20 nM, respectively.
